Laboratory results published in patent US9113629B2, “4-amino-6-(4-substituted-phenyl)-picolinates and 6-amino-2-(4-substituted-phenyl)-pyrimidine-4-carboxylates and their use as herbicides” (DOW AGROSCIENCES LLC, priority 2013, dated 2015).

Test system: KCHSC: kochia (Kochia scoparia)
Assay: Post-emergent Test III, herbicidal activity in wheat and barley
Type: in vivo
Conditions: Bassia scoparia, post-emergence, 504 h; 35 g ai/ha; read-out: Visual Growth Reduction (%) 21 Days After Application KCHSC
Method in brief: (§1)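 GR20, GR50, GR80 and GR90 come from probit analysis of visual injury scores (0 = none, 100 = complete kill) taken 21 d after treatment. Foliar application was by track sprayer delivering 187 L/ha at five rates, from high down to 1/16×, onto greenhouse plants at the 2–3 leaf stage, with solvent-blank controls.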
In the case of `Nc1c(F)c(-c2ccc(OC(F)F)cc2)nc(C(=O)O)c1Cl` [Compound 143], the pest or weed control at 35 g/ha is reported as 30 to 44%.

Same assay, conditions: Bassia scoparia, post-emergence, 504 h; 70 g ai/ha; read-out: Visual Growth Reduction (%) 21 Days After Application KCHSC
Work on `Nc1c(F)c(-c2ccc(OC(F)F)cc2)nc(C(=O)O)c1Cl` [Compound 143] yielded a pest or weed control at 70 g/ha of 30 to 44%.

Same assay, conditions: Bassia scoparia, post-emergence, 504 h; 140 g ai/ha; read-out: Visual Growth Reduction (%) 21 Days After Application KCHSC
`Nc1c(F)c(-c2ccc(OC(F)F)cc2)nc(C(=O)O)c1Cl` [Compound 143] showed a pest or weed control at 140 g/ha of 45 to 59%.

Same assay, conditions: probit analysis, dose for growth reduction of 50 percent, 21 days after application
In the case of `Nc1c(F)c(-c2ccc(OC(F)F)cc2)nc(C(=O)O)c1Cl` [Compound 143], the “GR50 KCHSC” value is reported as over 140 g ai/ha.

Same assay, conditions: probit analysis, dose for growth reduction of 80 percent, 21 days after application
In the case of `Nc1c(F)c(-c2ccc(OC(F)F)cc2)nc(C(=O)O)c1Cl` [Compound 143], the “GR80 KCHSC” value is reported as over 140 g ai/ha.

Test system: TRZSS: wheat, including spring and winter (Triticum aestivum)
Assay: as above
Type: in vivo
Conditions: Triticum aestivum, post-emergence, 504 h; 35 g ai/ha; read-out: Visual Growth Reduction (%) 21 Days After Application TRZSS
Method in brief: as §1
With `Nc1c(F)c(-c2ccc(OC(F)F)cc2)nc(C(=O)O)c1Cl` [Compound 143] the pest or weed control at 35 g/ha was 60 to 74%.

Same assay, conditions: Triticum aestivum, post-emergence, 504 h; 70 g ai/ha; read-out: Visual Growth Reduction (%) 21 Days After Application TRZSS
Work on `Nc1c(F)c(-c2ccc(OC(F)F)cc2)nc(C(=O)O)c1Cl` [Compound 143] yielded a pest or weed control at 70 g/ha of 75 to 84%.

Same assay, conditions: Triticum aestivum, post-emergence, 504 h; 140 g ai/ha; read-out: Visual Growth Reduction (%) 21 Days After Application TRZSS
Compound `Nc1c(F)c(-c2ccc(OC(F)F)cc2)nc(C(=O)O)c1Cl` [Compound 143] has a pest or weed control at 140 g/ha of 75 to 84%.

Same assay, conditions: probit analysis, dose for growth reduction of 20 percent, 21 days after application; crop
With `Nc1c(F)c(-c2ccc(OC(F)F)cc2)nc(C(=O)O)c1Cl` [Compound 143] the “GR20 TRZSS” value was 0 g ai/ha.

Test system: HORSS: barley, including spring and winter (Hordeum vulgare)
Assay: as above
Type: in vivo
Conditions: Hordeum vulgare, post-emergence, 504 h; 35 g ai/ha; read-out: Visual Growth Reduction (%) 21 Days After Application HORSS
Method in brief: as §1
For `Nc1c(F)c(-c2ccc(OC(F)F)cc2)nc(C(=O)O)c1Cl` [Compound 143], the pest or weed control at 35 g/ha was 60 to 74%.

Same assay, conditions: Hordeum vulgare, post-emergence, 504 h; 70 g ai/ha; read-out: Visual Growth Reduction (%) 21 Days After Application HORSS
`Nc1c(F)c(-c2ccc(OC(F)F)cc2)nc(C(=O)O)c1Cl` [Compound 143] showed a pest or weed control at 70 g/ha of 75 to 84%.

Same assay, conditions: Hordeum vulgare, post-emergence, 504 h; 140 g ai/ha; read-out: Visual Growth Reduction (%) 21 Days After Application HORSS
In the case of `Nc1c(F)c(-c2ccc(OC(F)F)cc2)nc(C(=O)O)c1Cl` [Compound 143], the pest or weed control at 140 g/ha is reported as 85 to 94%.

Same assay, conditions: probit analysis, dose for growth reduction of 20 percent, 21 days after application; crop
For `Nc1c(F)c(-c2ccc(OC(F)F)cc2)nc(C(=O)O)c1Cl` [Compound 143], the “GR20 HORSS” value was 2 g ai/ha.

Test system: APESV: bentgrass (Apera spica-venti)
Assay: as above
Type: in vivo
Conditions: Apera spica-venti, post-emergence, 504 h; 35 g ai/ha; read-out: Visual Growth Reduction (%) 21 Days After Application APESV
Method in brief: as §1
`Nc1c(F)c(-c2ccc(OC(F)F)cc2)nc(C(=O)O)c1Cl` [Compound 143] showed a pest or weed control at 35 g/ha of 60 to 74%.

Same assay, conditions: Apera spica-venti, post-emergence, 504 h; 70 g ai/ha; read-out: Visual Growth Reduction (%) 21 Days After Application APESV
`Nc1c(F)c(-c2ccc(OC(F)F)cc2)nc(C(=O)O)c1Cl` [Compound 143] gave a pest or weed control at 70 g/ha of 60 to 74%.

Same assay, conditions: Apera spica-venti, post-emergence, 504 h; 140 g ai/ha; read-out: Visual Growth Reduction (%) 21 Days After Application APESV
Work on `Nc1c(F)c(-c2ccc(OC(F)F)cc2)nc(C(=O)O)c1Cl` [Compound 143] yielded a pest or weed control at 140 g/ha of 75 to 84%.

Same assay, conditions: probit analysis, dose for growth reduction of 50 percent, 21 days after application
With `Nc1c(F)c(-c2ccc(OC(F)F)cc2)nc(C(=O)O)c1Cl` [Compound 143] the “GR50 APESV” value was 31 g ai/ha.

Same assay, conditions: probit analysis, dose for growth reduction of 80 percent, 21 days after application
For `Nc1c(F)c(-c2ccc(OC(F)F)cc2)nc(C(=O)O)c1Cl` [Compound 143], the “GR80 APESV” value was 129 g ai/ha.

Test system: MATSS: scented mayweed (Matricaria chamomilla), pineappleweed (Matricaria matricarioides)
Assay: as above
Type: in vivo
Conditions: Matricaria chamomilla, post-emergence, 504 h; 35 g ai/ha; read-out: Visual Growth Reduction (%) 21 Days After Application MATSS
Method in brief: as §1
`Nc1c(F)c(-c2ccc(OC(F)F)cc2)nc(C(=O)O)c1Cl` [Compound 143] gave a pest or weed control at 35 g/ha of 0 to 29%.

Same assay, conditions: Matricaria chamomilla, post-emergence, 504 h; 70 g ai/ha; read-out: Visual Growth Reduction (%) 21 Days After Application MATSS
`Nc1c(F)c(-c2ccc(OC(F)F)cc2)nc(C(=O)O)c1Cl` [Compound 143] gave a pest or weed control at 70 g/ha of 60 to 74%.

Same assay, conditions: Matricaria chamomilla, post-emergence, 504 h; 140 g ai/ha; read-out: Visual Growth Reduction (%) 21 Days After Application MATSS
In the case of `Nc1c(F)c(-c2ccc(OC(F)F)cc2)nc(C(=O)O)c1Cl` [Compound 143], the pest or weed control at 140 g/ha is reported as 60 to 74%.

Same assay, conditions: probit analysis, dose for growth reduction of 50 percent, 21 days after application
With `Nc1c(F)c(-c2ccc(OC(F)F)cc2)nc(C(=O)O)c1Cl` [Compound 143] the “GR50 MATSS” value was 67 g ai/ha.

Same assay, conditions: probit analysis, dose for growth reduction of 80 percent, 21 days after application
In the case of `Nc1c(F)c(-c2ccc(OC(F)F)cc2)nc(C(=O)O)c1Cl` [Compound 143], the “GR80 MATSS” value is reported as over 140 g ai/ha.

Test system: SETVI: green foxtail (Setaria viridis)
Assay: as above
Type: in vivo
Conditions: Setaria viridis, post-emergence, 504 h; 35 g ai/ha; read-out: Visual Growth Reduction (%) 21 Days After Application SETVI
Method in brief: as §1
`Nc1c(F)c(-c2ccc(OC(F)F)cc2)nc(C(=O)O)c1Cl` [Compound 143] showed a pest or weed control at 35 g/ha of 45 to 59%.

Same assay, conditions: Setaria viridis, post-emergence, 504 h; 70 g ai/ha; read-out: Visual Growth Reduction (%) 21 Days After Application SETVI
In the case of `Nc1c(F)c(-c2ccc(OC(F)F)cc2)nc(C(=O)O)c1Cl` [Compound 143], the pest or weed control at 70 g/ha is reported as 45 to 59%.

Same assay, conditions: Setaria viridis, post-emergence, 504 h; 140 g ai/ha; read-out: Visual Growth Reduction (%) 21 Days After Application SETVI
Compound `Nc1c(F)c(-c2ccc(OC(F)F)cc2)nc(C(=O)O)c1Cl` [Compound 143] has a pest or weed control at 140 g/ha of 60 to 74%.

Same assay, conditions: probit analysis, dose for growth reduction of 50 percent, 21 days after application
With `Nc1c(F)c(-c2ccc(OC(F)F)cc2)nc(C(=O)O)c1Cl` [Compound 143] the “GR50 SETVI” value was 52 g ai/ha.

Same assay, conditions: probit analysis, dose for growth reduction of 80 percent, 21 days after application
In the case of `Nc1c(F)c(-c2ccc(OC(F)F)cc2)nc(C(=O)O)c1Cl` [Compound 143], the “GR80 SETVI” value is reported as over 140 g ai/ha.

Test system: LOLSS: ryegrass including, Italian ryegrass (Lolium multiflorum), rigid ryegrass (Lolium rigidum), annual ryegrass (Lolium multiflorum subsp. Gaudini)
Assay: as above
Type: in vivo
Conditions: probit analysis, dose for growth reduction of 50 percent, 21 days after application
Method in brief: as §1
In the case of `Nc1c(F)c(-c2ccc(OC(F)F)cc2)nc(C(=O)O)c1Cl` [Compound 143], the “GR50 LOLSS” value is reported as 116 g ai/ha.

Same assay, conditions: probit analysis, dose for growth reduction of 80 percent, 21 days after application
With `Nc1c(F)c(-c2ccc(OC(F)F)cc2)nc(C(=O)O)c1Cl` [Compound 143] the “GR80 LOLSS” value was over 140 g ai/ha.

Test system: not listed separately
Assay: as above
Type: in vivo, Lolium multiflorum, Lolium rigidum
Conditions: Lolium multiflorum, post-emergence, 504 h; 35 g ai/ha; read-out: Visual Growth Reduction (%) 21 Days After Application LOLSS
Method in brief: as §1
With `Nc1c(F)c(-c2ccc(OC(F)F)cc2)nc(C(=O)O)c1Cl` [Compound 143] the pest or weed control at 35 g/ha was 0 to 29%.

Same assay, conditions: Lolium multiflorum, post-emergence, 504 h; 70 g ai/ha; read-out: Visual Growth Reduction (%) 21 Days After Application LOLSS
Compound `Nc1c(F)c(-c2ccc(OC(F)F)cc2)nc(C(=O)O)c1Cl` [Compound 143] has a pest or weed control at 70 g/ha of 30 to 44%.

Same assay, conditions: Lolium multiflorum, post-emergence, 504 h; 140 g ai/ha; read-out: Visual Growth Reduction (%) 21 Days After Application LOLSS
Compound `Nc1c(F)c(-c2ccc(OC(F)F)cc2)nc(C(=O)O)c1Cl` [Compound 143] has a pest or weed control at 140 g/ha of 45 to 59%.
